{"source": "patent EP3597653A1", "about": "“CYCLIC INHIBITORS OF HEPATITIS B VIRUS” (IRBM S.P.A., priority 2018, dated 2020)", "data": [{"test_system": "HBV", "test": "HBV inhibition assay in HepAD38 cells (extracellular HBV DNA by direct qPCR)", "type": "cell-based", "conditions": "Hepatitis B virus, 8-point dose-response curve, 96 hours, read-out: HBV inh EC50", "how_it_was_run": "(§1)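 HepAD38 cells (HepG2, tetracycline-off HBV) induced in tetracycline-free medium, treated 96 h at 37 °C with compound, 0.5% DMSO. Extracellular HBV DNA quantified by direct SYBR qPCR of lysed supernatant, as % of untreated; EC50 from 8-point 1:2 curves; cytotoxicity by CellTiter-Blue.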", "units": {"EC50": "nM"}, "values": [{"molecule": "Cc1cc(C(=O)Nc2cc(F)c(F)c(F)c2)cc2c1NCNS2(=O)=O", "note": "[Example E88, 5-methyl-N-(3,4,5-trifluorophenyl)-3,4-dihydro-2H-benzo[e][1,2,4]thiadiazine-7-carboxamide 1,1-dioxide]", "EC50": "> 1000"}, {"molecule": "O=C(Nc1cc(F)c(F)c(F)c1)c1ccc2c(c1)S(=O)(=O)NCCN2", "note": "[Example E94, N-(3,4,5-trifluorophenyl)-2,3,4,5-tetrahydrobenzo[f][1,2,5]thiadiazepine-8-carboxamide 1,1-dioxide]", "EC50": "> 1000"}]}, {"test_system": "HBV", "test": "HBV inhibition assay in HepAD38 cells (extracellular HBV DNA by direct qPCR)", "type": "cell-based", "conditions": "Hepatitis B virus, compound at 0.1 µM, 96 hours, relative to non-treated reference, read-out: Anti HBV Activity (conc µM)", "how_it_was_run": "as §1", "units": {"inhibition at 0.1 µM": "%"}, "values": [{"molecule": "O=C(Nc1cc(F)c(F)c(F)c1)c1ccc2c(c1)S(=O)(=O)N([C@H]1CCNC1)C(=O)N2", "note": "[Example E84, (S)-3-oxo-2-(pyrrolidin-3-yl)-N-(3,4,5-trifluorophenyl)-3,4-dihydro-2H-benzo[e][1,2,4]thiadiazine-7-carboxamide 1,1-dioxide]", "inhibition at 0.1 µM": "< 50"}, {"molecule": "CN1CC[C@H](N2C(=O)Nc3ccc(C(=O)Nc4cc(F)c(F)c(F)c4)cc3S2(=O)=O)C1", "note": "[Example E85, (S)-2-(1-methylpyrrolidin-3-yl)-3-oxo-N-(3,4,5-trifluorophenyl)-3,4-dihydro-2H-benzo[e][1,2,4]thiadiazine-7-carboxamide 1,1-dioxide]", "inhibition at 0.1 µM": "< 50"}]}, {"test_system": "HBV", "test": "HBV inhibition assay in HepAD38 cells (extracellular HBV DNA by direct qPCR)", "type": "cell-based", "conditions": "Hepatitis B virus, compound at 0.5 µM, 96 hours, relative to non-treated reference, read-out: Anti HBV Activity (conc µM)", "how_it_was_run": "as §1", "units": {"inhibition at 0.5 µM": "%"}, "values": [{"molecule": "C[C@H](N1C(=O)Nc2ccc(C(=O)Nc3cc(F)c(F)c(F)c3)cc2S1(=O)=O)C(F)(F)F", "note": "[Example E78, (S)-3-oxo-N-(3,4,5-trifluorophenyl)-2-(1,1,1-trifluoropropan-2-yl)-3,4-dihydro-2H-benzo[e][1,2,4]thiadiazine-7-carboxamide 1,1-dioxide]", "inhibition at 0.5 µM": "> 50"}, {"molecule": "O=C(Nc1cc(F)c(F)c(F)c1)c1ccc2c(c1)S(=O)(=O)N(C1COC1)C(=O)N2", "note": "[Example E82, 2-(oxetan-3-yl)-3-oxo-N-(3,4,5-trifluorophenyl)-3,4-dihydro-2H-benzo[e][1,2,4]thiadiazine-7-carboxamide 1,1-dioxide]", "inhibition at 0.5 µM": "> 50"}, {"molecule": "CC(C)(C)OC(=O)N1CC[C@H](N2C(=O)Nc3ccc(C(=O)Nc4cc(F)c(F)c(F)c4)cc3S2(=O)=O)C1", "note": "[Example E83, tert-butyl (S)-3-(1,1-dioxido-3-oxo-7-((3,4,5-trifluorophenyl)carbamoyl)-3,4-dihydro-2H-benzo[e][1,2,4]thiadiazin-2-yl)pyrrolidine-1-carboxylate]", "inhibition at 0.5 µM": "< 50"}, {"molecule": "O=C(Nc1cc(F)c(F)c(F)c1)c1ccc2c(c1)S(=O)(=O)N(C1CC(O)C1)C(=O)N2", "note": "(stereo not shown) [Example E86, 2-(3-hydroxycyclobutyl)-3-oxo-N-(3,4,5-trifluorophenyl)-3,4-dihydro-2H-benzo[e][1,2,4]thiadiazine-7-carboxamide 1,1-dioxide]", "inhibition at 0.5 µM": "> 50"}, {"molecule": "O=C(Nc1cc(F)c(F)c(F)c1)c1ccc2c(c1)S(=O)(=O)N([C@H]1CC[C@@H](O)CC1)C(=O)N2", "note": "[Example E87, cis-2-(4-hydroxycyclohexyl)-3-oxo-N-(3,4,5-trifluorophenyl)-3,4-dihydro-2H-benzo[e][1,2,4]thiadiazine-7-carboxamide 1,1-dioxide]", "inhibition at 0.5 µM": "> 50"}, {"molecule": "O=C(Nc1ccc(Cl)nc1)c1ccc2c(c1)S(=O)(=O)NCN2", "note": "[Example E92, N-(6-chloropyridin-3-yl)-3,4-dihydro-2H-benzo[e][1,2,4]thiadiazine-7-carboxamide 1,1-dioxide]", "inhibition at 0.5 µM": "< 50"}, {"molecule": "O=C(Nc1cc(F)c(F)c(F)c1)c1cnc2c(c1)S(=O)(=O)NCN2", "note": "[Example E93, N-(3,4,5-trifluorophenyl)-3,4-dihydro-2H-pyrido[2,3-e][1,2,4]thiadiazine-7-carboxamide 1,1-dioxide]", "inhibition at 0.5 µM": "< 50"}, {"molecule": "O=C(Nc1cc(F)c(F)c(F)c1)c1ccc2c(c1)S(=O)(=O)N[C@H]1CCC[C@@H]1N2", "note": "[Example E95, (3aS, 10aS)-N-(3,4,5-trifluorophenyl)-2,3,3a,4,10,10a-hexahydro-1H-benzo[f]cyclopenta[c][1,2,5]thiadiazepine-7-carboxamide 5,5-dioxide]", "inhibition at 0.5 µM": "< 50"}]}, {"test_system": "HBV", "test": "HBV inhibition assay in HepAD38 cells (extracellular HBV DNA by direct qPCR)", "type": "cell-based", "conditions": "Hepatitis B virus, compound at 1 µM, 96 hours, relative to non-treated reference, read-out: Anti HBV Activity (conc µM)", "how_it_was_run": "as §1", "units": {"inhibition at 1 µM": "%"}, "values": [{"molecule": "O=C(Nc1cc(F)c(F)c(F)c1)c1ccc2c(c1)S(=O)(=O)N(C1CC1)C(=O)N2", "note": "[Example E79, 2-cyclopropyl-3-oxo-N-(3,4,5-trifluorophenyl)-3,4-dihydro-2H-benzo[e][1,2,4]thiadiazine-7-carboxamide 1,1-dioxide]", "inhibition at 1 µM": "< 50"}, {"molecule": "O=C(Nc1cc(F)c(F)c(F)c1)c1ccc2c(c1)S(=O)(=O)N([C@H]1CC[C@H](O)CC1)C(=O)N2", "note": "[Example E80, trans-2-(4-hydroxycyclohexyl)-3-oxo-N-(3,4,5-trifluorophenyl)-3,4-dihydro-2H-benzo[e][1,2,4]thiadiazine-7-carboxamide 1,1-dioxide]", "inhibition at 1 µM": "> 50"}, {"molecule": "O=C(Nc1cc(F)c(F)c(F)c1)c1ccc2c(c1)S(=O)(=O)N(C1CCNCC1)C(=O)N2", "note": "[Example E81, 3-oxo-2-(piperidin-4-yl)-N-(3,4,5-trifluorophenyl)-3,4-dihydro-2H-benzo[e][1,2,4]thiadiazine-7-carboxamide 1,1-dioxide]", "inhibition at 1 µM": "> 50"}, {"molecule": "Cc1cc(C(=O)Nc2cc(F)c(F)c(F)c2)cc2c1NC(c1nccs1)NS2(=O)=O", "note": "(stereo not shown) [Example E89, 5-methyl-3-(thiazol-2-yl)-N-(3,4,5-trifluorophenyl)-3,4-dihydro-2H-benzo[e][1,2,4]thiadiazine-7-carboxamide 1,1-dioxide]", "inhibition at 1 µM": "> 50"}, {"molecule": "N#Cc1cc(NC(=O)c2ccc3c(c2)S(=O)(=O)NC=N3)ccc1F", "note": "[Example E90, N-(3-cyano-4-fluorophenyl)-2H-benzo[e][1,2,4]thiadiazine-7-carboxamide 1,1-dioxide]", "inhibition at 1 µM": "< 50"}, {"molecule": "N#Cc1cc(NC(=O)c2ccc3c(c2)S(=O)(=O)NCN3)ccc1F", "note": "[Example E91, N-(3-cyano-4-fluorophenyl)-3,4-dihydro-2H-benzo[e][1,2,4]thiadiazine-7-carboxamide 1,1-dioxide]", "inhibition at 1 µM": "< 50"}, {"molecule": "O=C(Nc1cc(F)c(F)c(F)c1)c1ccc2c(c1)S(=O)(=O)N1CCCCC1CN2", "note": "(stereo not shown) [Example E101, N-(3,4,5-trifluorophenyl)-1,3,4,11,12,12a-hexahydro-2H-benzo[f]pyrido[1,2-b][1,2,5]thiadiazepine-8-carboxamide 6,6-dioxide]", "inhibition at 1 µM": "> 50"}, {"molecule": "CN1CC2CCCCN2S(=O)(=O)c2cc(C(=O)Nc3cc(F)c(F)c(F)c3)ccc21", "note": "(stereo not shown) [Example E102, 11-methyl-N-(3,4,5-trifluorophenyl)-1,3,4,11,12,12a-hexahydro-2H-benzo[f]pyrido[1,2-b][1,2,5]thiadiazepine-8-carboxamide 6,6-dioxide]", "inhibition at 1 µM": "< 50"}, {"molecule": "O=C(Nc1cc(F)c(F)c(F)c1)c1ccc2c(c1)S(=O)(=O)N1CCCC[C@H]1CN2", "note": "[Example E103, (S)-N-(3,4,5-trifluorophenyl)-1,3,4,11,12,12a-hexahydro-2H-benzo[f]pyrido[1,2-b][1,2,5]thiadiazepine-8-carboxamide 6,6-dioxide]", "inhibition at 1 µM": "< 50"}, {"molecule": "O=C(Nc1cc(F)c(F)c(F)c1)c1ccc2c(c1)S(=O)(=O)N1CCCC[C@@H]1CN2", "note": "[Example E104, (R)-N-(3,4,5-trifluorophenyl)-1,3,4,11,12,12a-hexahydro-2H-benzo[f]pyrido[1,2-b][1,2,5]thiadiazepine-8-carboxamide 6,6-dioxide]", "inhibition at 1 µM": "> 50"}, {"molecule": "O=C(Nc1cc(F)c(F)c(F)c1)c1ccc2c(c1)S(=O)(=O)N1CC[C@@H](C1)N2", "note": "[Example E105, (5S)-N-(3,4,5-trifluorophenyl)-3,4,5,6-tetrahydro-2,5-methanobenzo[g][1,2,6]thiadiazocine-9-carboxamide 1,1-dioxide]", "inhibition at 1 µM": "< 50"}, {"molecule": "O=C(Nc1cc(F)c(F)c(F)c1)c1ccc2c(c1)S(=O)(=O)N1CCCC1CN2", "note": "(stereo not shown) [Example E106, N-(3,4,5-trifluorophenyl)-1,2,3,10,11,11a-hexahydrobenzo[f]pyrrolo[1,2-b][1,2,5]thiadiazepine-7-carboxamide 5,5-dioxide]", "inhibition at 1 µM": "< 50"}, {"molecule": "O=C(Nc1cc(F)c(F)c(F)c1)c1ccc2c(c1)S(=O)(=O)N1CCC1CN2", "note": "(stereo not shown) [Example E107, N-(3,4,5-trifluorophenyl)-1,9,10,10a-tetrahydro-2H-azeto[1,2-b]benzo[f][1,2,5]thiadiazepine-6-carboxamide 4,4-dioxide]", "inhibition at 1 µM": "< 50"}, {"molecule": "O=C(Nc1cc(F)c(F)c(F)c1)c1ccc2c(c1)S(=O)(=O)N1CCOCC1CN2", "note": "(stereo not shown) [Example E108, N-(3,4,5-trifluorophenyl)-1,3,4,11,12,12a-hexahydrobenzo[f][1,4]oxazino[4,3-b][1,2,5]thiadiazepine-8-carboxamide 6,6-dioxide]", "inhibition at 1 µM": "< 50"}, {"molecule": "O=C(Nc1cc(F)c(F)c(F)c1)c1ccc2c(c1)S(=O)(=O)n1ccnc1CN2", "note": "[Example E109, N-(3,4,5-trifluorophenyl)-10,11-dihydrobenzo[f]imidazo[1,2-b][1,2,5]thiadiazepine-7-carboxamide 5,5-dioxide]", "inhibition at 1 µM": "< 50"}, {"molecule": "O=C(Nc1ccc(F)c(F)c1)c1ccc2c(c1)S(=O)(=O)N1CCN2CC1", "note": "[Example E110, N-(3,4-difluorophenyl)-3,4-dihydro-2,5-ethanobenzo[f][1,2,5]thiadiazepine-8-carboxamide 1,1-dioxide]", "inhibition at 1 µM": "< 50"}, {"molecule": "O=C(Nc1cc(F)c(F)c(F)c1)c1ccc2c(c1)S(=O)(=O)N1CCCCC1CO2", "note": "(stereo not shown) [Example E111, N-(3,4,5-trifluorophenyl)-1,2,3,4,12,12a-hexahydrobenzo[b]pyrido[1,2-e][1,4,5]oxathiazepine-8-carboxamide 6,6-dioxide]", "inhibition at 1 µM": "< 50"}, {"molecule": "O=C(Nc1cc(F)c(F)c(F)c1)c1ccc2c(c1)S(=O)(=O)N1CCCC[C@@H]1CO2", "note": "[Example E112, (R)-N-(3,4,5-trifluorophenyl)-1,2,3,4,12,12a-hexahydrobenzo[b]pyrido[1,2-e][1,4,5]oxathiazepine-8-carboxamide 6,6-dioxide]", "inhibition at 1 µM": "< 50"}, {"molecule": "O=C(Nc1cc(F)c(F)c(F)c1)c1ccc2c(c1)S(=O)(=O)N1CCCC[C@H]1CO2", "note": "[Example E113, (S)-N-(3,4,5-trifluorophenyl)-1,2,3,4,12,12a-hexahydrobenzo[b]pyrido[1,2-e][1,4,5]oxathiazepine-8-carboxamide 6,6-dioxide]", "inhibition at 1 µM": "< 50"}]}]}
